Measured values: patent US9890117B2, “Benzamide compounds and related methods of use” (Northwestern University, priority 2012, dated 2018)
Structures can show the parent of a compound that is named as a salt.

Target: T1, SIRT2 (Homo sapiens, UniProt Q8IXJ6)
T1 construct: recombinant active enzymes SIRT1, SIRT2, and the catalytically active fragment of SIRT3
T1 sequence (Q8IXJ6 1-389): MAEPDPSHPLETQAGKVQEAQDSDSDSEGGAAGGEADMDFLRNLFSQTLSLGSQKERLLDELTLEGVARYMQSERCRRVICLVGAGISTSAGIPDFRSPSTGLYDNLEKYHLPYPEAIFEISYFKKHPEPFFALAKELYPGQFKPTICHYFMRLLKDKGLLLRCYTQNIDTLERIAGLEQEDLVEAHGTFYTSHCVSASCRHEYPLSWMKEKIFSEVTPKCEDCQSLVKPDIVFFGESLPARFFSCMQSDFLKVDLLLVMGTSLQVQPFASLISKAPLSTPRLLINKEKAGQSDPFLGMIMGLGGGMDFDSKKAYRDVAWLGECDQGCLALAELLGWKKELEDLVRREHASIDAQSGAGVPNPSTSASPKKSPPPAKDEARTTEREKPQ
Test: Fluor-de-Lys biochemical sirtuin deacetylation assay, SIRT2
Conditions: for SIRT2 inhibition potency compared with AK-1: dose-response, five doses, side-by-side with AK-1

[1] = sulfone, sulfoxide, thioether derivatives of C2-8 scaffold

`CN(c1ccc(Cl)cc1)S(=O)(=O)c1cccc(C(=O)NCc2ccccn2)c1` [Compound 53, 3-(N-(4-chlorophenyl)-N-methylsulfamoyl)-N-(pyridin-2-ylmethyl)benzamide] was tested, and the “% of SIRT2 Inhibition at 10 μM” value (C2-8 derivatives) was 0%.

`CN(c1ccc(Cl)cc1)S(=O)(=O)c1cccc(C(=O)NCc2ccccn2)c1` [Compound 62, 3-(N-(4-chlorophenyl)-N-methylsulfamoyl)-N-(pyridin-2-ylmethyl)benzamide] was tested, and the “% of SIRT2 Inhibition at 10 μM” value (C2-8 derivatives) was 3%.

`CN(c1ccc(Br)cc1)S(=O)(=O)c1cccc(C(=O)Nc2ccc(Cl)nn2)c1` [Compound 85, 3-(N-(4-bromophenyl)-N-methylsulfamoyl)-N-(6-chloropyridazin-3-yl)benzamide] was tested, and the inhibition at 10 µM (C2-8 derivatives) was 16%.

With `CC(=O)c1ccc(NC(=O)c2cccc(S(=O)(=O)N(C)c3ccc(C(C)=O)cc3)c2)cc1` [Compound 109, N-(4-Acetylphenyl)-3-(N-(4-acetylphenyl)-N-methylsulfamoyl)benzamide] the “SIRT2 inhibition potency compared with AK-1” value was “equal or just slightly better potency”.

With `CN(c1ccc(S(C)(=O)=O)cc1)S(=O)(=O)c1cccc(C(=O)Nc2ccc(Cl)cc2)c1` [Compound 117, N-(4-Chlorophenyl)-3-(N-methyl-N-(4-(methylsulfonyl)phenyl)sulfamoyl)benzamide] the “SIRT2 inhibition potency compared with AK-1” value was “equal or just slightly better potency”.

With `C[S+]([O-])c1cccc(NC(=O)c2cccc(S(=O)(=O)N3CCCCCC3)c2)c1` (stereo not drawn) [Compound 138, 3-(azepan-1-ylsulfonyl)-N-(3-(methylsulfinyl)phenyl)benzamide] the “% of SIRT2 Inhibition at 10 μM” value (AK-1 derivatives) was 4%.

In the case of `C[S+]([O-])c1cccc(NC(=O)c2cccc(S(=O)(=O)N3CCCCCC3)c2)c1` (stereo not drawn) [Compound 141, 3-(azepan-1-ylsulfonyl)-N-(3-(methylsulfinyl)phenyl)benzamide], the “% of SIRT2 Inhibition at 10 μM” value (AK-1 derivatives) is reported as 1%.

`O=C(Nc1ccc(Cl)cc1)c1cccc(S(=O)(=O)Cc2ccc(Cl)cc2)c1` [Compound 171, 3-((4-chlorobenzyl)sulfonyl)-N-(4-chlorophenyl)benzamide] gave an inhibition at 10 µM [1] of 0%.

`O=C(Nc1ccc(Br)cc1)c1cccc(S(=O)(=O)Cc2ccc(Cl)cc2)c1` [Compound 172, N-(4-bromophenyl)-3-((4-chlorobenzyl)sulfonyl)benzamide] gave an inhibition at 10 µM [1] of 0%.

For `O=C(Nc1ccc(Cl)cn1)c1cccc(S(=O)(=O)Cc2ccc(Cl)cc2)c1` [Compound 173, 3-((4-chlorobenzyl)sulfonyl)-N-(5-chloropyridin-2-yl)benzamide], the inhibition at 10 µM [1] was 2%.

`C[S+]([O-])c1ccc(NC(=O)c2cccc(S(=O)(=O)Cc3ccc(Cl)cc3)c2)cc1` (stereo not drawn) [Compound 175, 3-((4-chlorobenzyl)sulfonyl)-N-(4-(methylsulfinyl)phenyl)benzamide] was tested, and the inhibition at 10 µM [1] was 31%.

Work on `N#Cc1ccc(NC(=O)c2cccc(S(=O)(=O)Cc3ccc(Cl)cc3)c2)nc1` [Compound 176, 3-((4-chlorobenzyl)sulfonyl)-N-(5-cyanopyridin-2-yl)benzamide] yielded an inhibition at 10 µM [1] of 36%.

In the case of `CS(=O)(=O)c1ccc(NC(=O)c2cccc(S(=O)(=O)Cc3ccc(Cl)cc3)c2)cc1` [Compound 177, 3-((4-chlorobenzyl)sulfonyl)-N-(4-(methylsulfonyl)phenyl)benzamide], the inhibition at 10 µM [1] is reported as 17%.

`CC(=O)c1ccc(NC(=O)c2cccc(S(=O)(=O)Cc3ccc(Cl)cc3)c2)cc1` [Compound 178, N-(4-acetylphenyl)-3-((4-chlorobenzyl)sulfonyl)benzamide] was tested, and the inhibition at 10 µM [1] was 23%.

`O=C(Nc1ccc(Cl)nn1)c1cccc(S(=O)(=O)Cc2ccc(Cl)cc2)c1` [Compound 179, 3-((4-chlorobenzyl)sulfonyl)-N-(6-chloropyridazin-3-yl)benzamide] showed an inhibition at 10 µM [1] of 0%.

`COc1ccc(CS(=O)(=O)c2cccc(C(=O)Nc3ccc(C#N)cc3)c2)cc1` [Compound 180, N-(4-cyanophenyl)-3-((4-methoxybenzyl)sulfonyl)benzamide] was tested, and the inhibition at 10 µM [1] was 50%.

`N#Cc1ccc(NC(=O)c2cccc(SCc3ccc(Cl)cc3)c2)cc1` [Compound 181, 3-((4-chlorobenzyl)thio)-N-(4-cyanophenyl)benzamide] was tested, and the inhibition at 10 µM [1] was 81%.

For `CSc1ccc(CSc2cccc(C(=O)Nc3ccc(C#N)cc3)c2)cc1` [Compound 183, N-(4-cyanophenyl)-3-((4-(methylthio)benzyl)thio)benzamide], the inhibition at 10 µM [1] was 83%.

`N#Cc1ccc(NC(=O)c2cccc([S+]([O-])Cc3ccc(Cl)cc3)c2)cc1` (stereo not drawn) [Compound 186, N-(4-cyanophenyl)-3-((4-chlorobenzyl)sulfinyl)benzamide] showed an inhibition at 10 µM [1] of 47%.

Work on `C[S+]([O-])c1ccc(NC(=O)c2cccc([S+]([O-])Cc3ccc(Cl)cc3)c2)cc1` (stereo not drawn) [Compound 187, 3-((4-chlorobenzyl)sulfinyl)-N-(4-(methylsulfinyl)phenyl)benzamide] yielded an inhibition at 10 µM [1] of 24%.

With `C[S+]([O-])c1ccc(NC(=O)c2cccc(S(=O)(=O)Cc3ccc(Cl)cc3)c2)cc1` (stereo not drawn) [Compound 188, 3-((4-chlorobenzyl)sulfonyl)-N-(4-(methylsulfinyl)phenyl)benzamide] the “% of SIRT2 Inhibition at 10 μM” value [1] was 18%.

Compound `COc1ccc(C[S+]([O-])c2cccc(C(=O)Nc3ccc(C#N)cc3)c2)cc1` (stereo not drawn) [Compound 189, N-(4-cyanophenyl)-3-((4-methoxybenzyl)sulfinyl)benzamide] has an inhibition at 10 µM [1] of 21%.

With `CN(c1ccc(Cl)cc1)S(=O)(=O)c1cccc(C(=O)Nc2ccc(CN)cc2)c1` [Compound 203Aa, N-(4-(aminomethyl)phenyl)-3-(N-(4-chlorophenyl)-N-methylsulfamoyl)benzamide] the inhibition at 10 µM was 15%.

In the case of `CN(c1ccc([S+](C)[O-])cc1)S(=O)(=O)c1cccc(C(=O)Nc2ccc(Cl)cc2F)c1` (stereo not drawn) [Compound 203Ad, N-(4-chloro-2-fluorophenyl)-3-(N-methyl-N-(4-(methylsulfinyl)phenyl)sulfamoyl)-benzamide], the inhibition at 10 µM is reported as 0%.

Work on `CN(C(=O)c1ccnc(S(=O)(=O)N(C)c2ccc(Cl)cc2)c1)c1ccc(S(C)(=O)=O)cc1` [Compound 203Ao, 2-(N-(4-chlorophenyl)-N-methylsulfamoyl)-N-methyl-N-(4-(methylsulfonyl)phenyl)-isonicotinamide] yielded an inhibition at 10 µM of 0%.

Compound `C[C@@H](N)c1ccc(N(C)S(=O)(=O)c2cccc(C(=O)Nc3ccc(C#N)cc3)c2)cc1` [Compound 203At, (R)-3-(N-(4-(1-aminoethyl)phenyl)-N-methylsulfamoyl)-N-(4-cyanophenyl)-benzamide hydrochloride] has an inhibition at 10 µM of 38%.

For `C[C@H](N)c1ccc(N(C)S(=O)(=O)c2cccc(C(=O)Nc3ccc(C#N)cc3)c2)cc1` [Compound 203Au, (S)-3-(N-(4-(1-aminoethyl)phenyl)-N-methylsulfamoyl)-N-(4-cyanophenyl) benzamide hydrochloride], the inhibition at 10 µM was 39%.

For `CN(c1ccc(O)cc1)S(=O)(=O)c1cccc(C(=O)Nc2ccc(C#N)cc2)c1` [Compound 203Ax, N-(4-cyanophenyl)-3-(N-(4-hydroxyphenyl)-N-methylsulfamoyl)benzamide], the inhibition at 10 µM was 51%.

`Cc1cc(Br)ccc1NC(=O)c1cccc(S(=O)(=O)N(C)c2ccc(Br)cc2)c1` [Compound 203e, N-(4-bromo-2-methylphenyl)-3-(N-(4-bromophenyl)-N-methylsulfamoyl)benzamide] showed an inhibition at 10 µM of 0%.

For `Nc1cccc(NC(=O)c2cccc(S(=O)(=O)N3CCCCCC3)c2)c1` [Compound 203i, N-(3-aminophenyl)-3-(azepan-1-ylsulfonyl)benzamide], the inhibition at 10 µM was 43%.

With `CN(C)c1cccc(NC(=O)c2cccc(S(=O)(=O)N3CCCCCC3)c2)c1` [Compound 203j, 3-(azepan-1-ylsulfonyl)-N-(3-(dimethylamino)phenyl)benzamide] the inhibition at 10 µM was 61%.

`CN(c1ccc(Br)cc1)S(=O)(=O)c1cccc(C(=O)Nc2ccc(Br)cc2F)c1` [Compound 203r, N-(4-bromo-2-fluorophenyl)-3-(N-(4-bromophenyl)-N-methylsulfamoyl)benzamide] showed an inhibition at 10 µM of 30%.

In the case of `CN(C(=O)c1cccc(S(=O)(=O)N(C)c2ccc(Br)cc2)c1)c1ccc(F)cc1F` [Compound 203t, 3-(N-(4-bromophenyl)-N-methylsulfamoyl)-N-(2,4-difluorophenyl)-N-methyl-benzamide], the inhibition at 10 µM is reported as 17%.

Work on `CS(=O)(=O)c1ccc(CS(=O)(=O)c2cccc(C(=O)Nc3ccc(C#N)cc3)c2)cc1` [Compound 212a, N-(4-cyanophenyl)-3-((4-(methylsulfonyl)benzyl)sulfonyl)benzamide] yielded an inhibition at 10 µM of 19%.

For `C[C@@H](Oc1cccc(C(=O)Nc2ccc(C#N)cc2)c1)c1ccc(C#N)cc1` [Compound 216Ag, (R)—N-(4-cyanophenyl)-3-(1-(4-cyanophenyl)ethoxy)benzamide], the inhibition at 10 µM was 92%.

`CC(Oc1cccc(C(=O)Nc2ccc(C#N)cc2)c1)c1ccc(C2COC2)cc1` (stereo not drawn) [Compound 216Ah, N-(4-cyanophenyl)-3-(1-(4-(oxetan-3-yl)phenyl)ethoxy)benzamide] gave an inhibition at 10 µM of 41%.

In the case of `CC(=O)c1ccc(C(C)(C)Oc2cccc(C(=O)Nc3ccc(C#N)cc3)c2)cc1` [Compound 216Ai, 3-((2-(4-acetylphenyl)propan-2-yl)oxy)-N-(4-cyanophenyl)benzamide], the inhibition at 10 µM is reported as 80%.

`CC(Oc1cccc(C(=O)Nc2ccc(C#N)cc2)c1)c1ccc(C2(C)COC2)cc1` (stereo not drawn) [Compound 216Aj, N-(4-cyanophenyl)-3-(1-(4-(3-methyloxetan-3-yl)phenyl)ethoxy)benzamide] showed an inhibition at 10 µM of 43%.

`CC(=O)c1ccc([C@@H](C)Oc2cccc(C(=O)Nc3ccc(C#N)cc3)c2)cc1` [Compound 216Ak, (R)-3-(1-(4-acetylphenyl)ethoxy)-N-(4-cyanophenyl)benzamide] showed an inhibition at 10 µM of 98%.
